Experimental data: PMC12022980, “Rational Design of PROTAC Linkers Featuring Ferrocene as a Molecular Hinge to Enable Dynamic Conformational Changes” (Journal of the American Chemical Society, 2025)

Assays:
[1] = Variable temperature NMR (vt-NMR) of amide protons in CDCl3; assay type: physicochemical; settings: CDCl3, 298–328 K
Excerpt: With this premise, we performed NMR studies to quantify the HBD solvent exposure of the amide protons using the HBD Acidity NMR score (ANMR)[47] and variable temperature studies (vt-NMR).[48] To note, although vt-NMR has originally been developed and applied to the study of peptides,[49] it is, together with the ANMR value, a well-established method for studying the intramolecular hydrogen bonding (IMHB) patterns in systems such as PROTACs[10],[12],[18],[26] as well as in ferrocene structures.[29],[50]−[53] […]
(§1) Standard NMR experiments were performed at 298 K, while variable-temperature NMR experiments recorded spectra across a temperature range from 298 K to 328 K allowing a sufficient temperature equilibration time (10–15 min) before signal acquisition. All NOESY spectra for conformational analysis as well as the assignment spectra in methanol-d 4 were recorded on a 500 MHz Bruker Avance III equipped with a 5 mm QCI cryogenic probe. NOESY spectra were obtained from a sample at 1.25 mM in CDCl3 and 1.25 mM in methanol-d4, recorded at 298 K, using 16 transients, 1024 points in the direct dimension and 512 points in the indirect dimension, a relaxation delay of 1.5 s, and a mixing time of 700 ms. All other spectra used for signal assignment in CDCl3 were recorded on 500 MHz Bruker Avance NEO with a BBFO SmartProbe. […]

[2] = HBD acidity NMR score (ANMR), amide NH shifts in CDCl3 vs DMSO-d6; assay type: physicochemical
Excerpt: With this premise, we performed NMR studies to quantify the HBD solvent exposure of the amide protons using the HBD Acidity NMR score (ANMR)[47] and variable temperature studies (vt-NMR).[48] To note, although vt-NMR has originally been developed and applied to the study of peptides,[49] it is, together with the ANMR value, a well-established method for studying the intramolecular hydrogen bonding (IMHB) patterns in systems such as PROTACs[10],[12],[18],[26] as well as in ferrocene structures.[29],[50]−[53]
Considering the assumed flexibility of the ferrocene moiety, we anticipated the amide protons in AS4 next to the ferrocene moiety, i.e., N(3)-H and N(4)-H, to show greater shielding effects in CDCl3 as compared to DMSO-d6, consistently with a preference for the cis conformation. In contrast, in the presence of a strong hydrogen-bond acceptor solvent such as DMSO-d6, the intercalation of polar solvent molecules is likely to disrupt the IMHB, favoring an expanded trans conformation[50] of the substituent chains (Figure 4A). An initial analysis of the ^1H NMR spectra was obtained on samples in deuterated CDCl3 and DMSO-d6. […]
The chemical shift difference between the two solvents (Δδ) can be converted into hydrogen bond acidity (ANMR) for a quantitative assessment of IMHB. […]
as §1

For Cc1ncsc1-c1ccc(CNC(=O)[C@@H]2C[C@@H](O)CN2C(=O)[C@@H](NC(=O)CCCCCOCCOCCCCCC(=O)Nc2cccc3c2C(=O)N(C2CCC(=O)NC2=O)C3=O)C(C)(C)C)cc1 (some centres unmarked) [14a], the “temperature coefficient Δδ/ΔT N(1)-H” value [1] was −3.52 ppb/K, the “temperature coefficient Δδ/ΔT N(2)-H” value [1] was −1.57 ppb/K and the “ANMR N(1)-H” value [2] was 0.16. For the same molecule, the “Δδ N(1)-H” value [2] was 1.16 ppm and the “Δδ N(2)-H” value [2] was 0.15 ppm.
